The source of these data is patent US8962608B2, “Cycloalkylnitrile pyrazole carboxamides as janus kinase inhibitors” (Merck Sharp & Dohme Corp., priority 2011, dated 2015).

SMILES strings stand for the structures.
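Further: biochemical JAK kinase assay with HTRF detection.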

The target of this experiment is JAK2 (recombinant purified GST-tagged catalytic domain) (Homo sapiens (Human), UniProt O60674). Briefly: biochemical.
Chain of JAK2 (recombinant purified GST-tagged catalytic domain) (O60674 849-1124): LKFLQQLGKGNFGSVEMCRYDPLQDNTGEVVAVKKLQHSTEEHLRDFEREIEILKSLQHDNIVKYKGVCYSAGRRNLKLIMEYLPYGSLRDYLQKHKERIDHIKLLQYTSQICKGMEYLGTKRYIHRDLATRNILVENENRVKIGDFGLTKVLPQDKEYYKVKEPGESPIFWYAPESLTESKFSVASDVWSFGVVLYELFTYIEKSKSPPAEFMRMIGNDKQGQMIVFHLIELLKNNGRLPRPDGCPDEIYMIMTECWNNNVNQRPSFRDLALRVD
As to `N#C[C@H]1C[C@@H](N2CCC2)CC[C@@H]1n1cc(C(N)=O)c(Nc2ccc(Cl)c(F)c2)n1` (single isomer, unassigned) [Example 28-36, 1-[(1S,2S,4S or 1R,2R,4R)-4-azetidin-1-yl-2-cyanocyclohexyl]-3-[(4-chloro-3-fluorophenyl)amino]-1H-pyrazole-4-carboxamide], the IC50 came out at 84 nM. With `N#C[C@H]1C[C@H](N2CCC2)CC[C@@H]1n1cc(C(N)=O)c(Nc2ccc(Cl)c(F)c2)n1` (single isomer, unassigned) [Example 28-37, 1-[(1S,2S,4R or 1R,2R,4S)-4-azetidin-1-yl-2-cyanocyclohexyl]-3-[(4-chloro-3-fluorophenyl)amino]-1H-pyrazole-4-carboxamide], the IC50 was determined as 120 nM. `CN[C@@H]1CC[C@H](n2cc(C(N)=O)c(Nc3ccc(Cl)c(F)c3)n2)[C@@H](C#N)C1` (single isomer, unassigned) [Example 28-39, 3-[(4-chloro-3-fluorophenyl)amino]-1-[(1S,2S,4R or 1R,2R,4S)-2-cyano-4-(methylamino)cyclohexyl]-1H-pyrazole-4-carboxamide]: the IC50 was 35 nM. Take `CN[C@H]1CC[C@H](n2cc(C(N)=O)c(Nc3ccc(Cl)c(F)c3)n2)[C@@H](C#N)C1` (single isomer, unassigned) [Example 28-43, 3-[(4-chloro-3-fluorophenyl)amino]-1-[(1S,2S,4S or 1R,2R,4R)-2-cyano-4-(methylamino)cyclohexyl]-1H-pyrazole-4-carboxamide]: the IC50 came out at 26 nM. As to `CC1(C)CN([C@@H]2CC[C@H](n3cc(C(N)=O)c(Nc4ccc([C@H](O)C(F)(F)F)cc4)n3)[C@@H](C#N)C2)C1` (single isomer, unassigned) [Example 28-44, 1-[(1S,2S,4R or 1R,2R,4S)-2-cyano-4-(3,3-dimethylazetidin-1-yl)cyclohexyl]-3-({4-[(1S or 1R)-2,2,2-trifluoro-1-hydroxyethyl]phenyl}amino)-1H-pyrazole-4-carboxamide], the half-inhibitory concentration (IC50) turned out to be 11 nM. `N#C[C@H]1C[C@@H](N2CCC2)CC[C@@H]1n1cc(C(N)=O)c(Nc2ccc([C@H](O)C(F)(F)F)cc2)n1` (single isomer, unassigned) [Example 28-47, 1-[(1S,2S,4S or 1R,2R,4R)-4-azetidin-1-yl-2-cyanocyclohexyl]-3-({4-[(1S or 1R)-2,2,2-trifluoro-1-hydroxyethyl]phenyl}amino)-1H-pyrazole-4-carboxamide]: the IC50 was found to be 11 nM. Take `CN(C)[C@@H]1CC[C@H](n2cc(C(N)=O)c(Nc3ccc(OC(F)(F)F)cc3)n2)[C@@H](C#N)C1` (single isomer, unassigned) [Example 28-54, 1-[(1S,2S,4R or 1R,2R,4S)-2-cyano-4-(dimethylamino)cyclohexyl]-3-{[4-(trifluoromethoxy)phenyl]amino}-1H-pyrazole-4-carboxamide]: the IC50 was found to be 92 nM.

For the molecule `CC1(C)CN([C@H]2CC[C@H](n3cc(C(N)=O)c(Nc4ccc([C@@H](O)C(F)(F)F)cc4)n3)[C@@H](C#N)C2)C1` (single isomer, unassigned) [Example 28-61, 1-[(1S,2S,4S or 1R,2R,4R)-2-cyano-4-(3,3-dimethylazetidin-1-yl)cyclohexyl]-3-({4-[(1R or 1S)-2,2,2-trifluoro-1-hydroxyethyl]phenyl}amino)-1H-pyrazole-4-carboxamide], the 50% inhibitory concentration (IC50) turned out to be 4 nM.

In the case of `N#C[C@H]1C[C@H](N2CCC2)CC[C@@H]1n1cc(C(N)=O)c(Nc2ccc([C@H](O)C(F)(F)F)cc2)n1` (single isomer, unassigned) [Example 28-65, 1-[(1S,2S,4R or 1R,2R,4S)-4-azetidin-1-yl-2-cyanocyclohexyl]-3-({4-[(1S or 1R)-2,2,2-trifluoro-1-hydroxyethyl]phenyl}amino)-1H-pyrazole-4-carboxamide], the half-maximal inhibitory concentration (IC50) worked out at 12 nM.

Regarding `N#C[C@H]1C[C@@H](N2CCC2)CC[C@@H]1n1cc(C(N)=O)c(Nc2ccc(C=O)cc2)n1` (single isomer, unassigned) [Example 28-66, 1-[(1S,2S,4S or 1R,2R,4R)-4-azetidin-1-yl-2-cyanocyclohexyl]-3-[(4-formylphenyl)amino]-1H-pyrazole-4-carboxamide], the IC50 stood at 16 nM. Then `CC1(C)CN([C@@H]2CC[C@H](n3cc(C(N)=O)c(Nc4ccc([C@@H](O)C(F)(F)F)cc4)n3)[C@@H](C#N)C2)C1` (single isomer, unassigned) [Example 28-81, 1-[(1S,2S,4R or 1R,2R,4S)-2-cyano-4-(3,3-dimethylazetidin-1-yl)cyclohexyl]-3-({4-[(1R or 1S)-2,2,2-trifluoro-1-hydroxyethyl]phenyl}amino)-1H-pyrazole-4-carboxamide], with 24 nM. For the molecule `N#C[C@H]1C[C@H](N2CCC2)CC[C@@H]1n1cc(C(N)=O)c(Nc2ccc([C@@H](O)C(F)(F)F)cc2)n1` (single isomer, unassigned) [Example 28-85, 1-[(1S,2S,4R or 1R,2R,4S)-4-azetidin-1-yl-2-cyanocyclohexyl]-3-({4-[(1R or 1S)-2,2,2-trifluoro-1-hydroxyethyl]phenyl}amino)-1H-pyrazole-4-carboxamide], the IC50 amounted to 17 nM.

On to `CN(C)[C@H]1CC[C@H](n2cc(C(N)=O)c(Nc3ccc(OC(F)(F)F)cc3)n2)[C@@H](C#N)C1` (single isomer, unassigned) [Example 28-86, 1-[(1S,2S,4S or 1R,2R,4R)-2-cyano-4-(dimethylamino)cyclohexyl]-3-{[4-(trifluoromethoxy)phenyl]amino}-1H-pyrazole-4-carboxamide], for which the IC50 came out at 18 nM. For the molecule `N#C[C@H]1C[C@@H](N2CCC2)CC[C@@H]1n1cc(C(N)=O)c(Nc2ccc([C@@H](O)C(F)(F)F)cc2)n1` (single isomer, unassigned) [Example 28-87, 1-[(1S,2S,4S or 1R,2R,4R)-4-azetidin-1-yl-2-cyanocyclohexyl]-3-({4-[(1R or 1S)-2,2,2-trifluoro-1-hydroxyethyl]phenyl}amino)-1H-pyrazole-4-carboxamide], the IC50 came out at 13 nM. With `CC1(C)CN([C@H]2CC[C@H](n3cc(C(N)=O)c(Nc4ccc([C@H](O)C(F)(F)F)cc4)n3)[C@@H](C#N)C2)C1` (single isomer, unassigned) [Example 28-93, 1-[(1S,2S,4S or 1R,2R,4R)-2-cyano-4-(3,3-dimethylazetidin-1-yl)cyclohexyl]-3-({4-[(1S or 1R)-2,2,2-trifluoro-1-hydroxyethyl]phenyl}amino)-1H-pyrazole-4-carboxamide], the IC50 amounted to 5 nM.

With `N#C[C@H]1C[C@H](NCC(F)F)CC[C@@H]1n1cc(C(N)=O)c(Nc2ccnc(F)c2)n1` (single isomer, unassigned) [Example 28-106, 1-{(1S,2S,4R or 1R,2R,4S)-2-cyano-4-[(2,2-difluoroethyl)amino]cyclohexyl}-3-[(2-fluoropyridin-4-yl)amino]-1H-pyrazole-4-carboxamide], the IC50 came out at 53 nM.

For the molecule `N#C[C@H]1C[C@@H](NCC(F)(F)F)CC[C@@H]1n1cc(C(N)=O)c(Nc2ccc(S(=O)(=O)C(F)(F)F)cc2)n1` (single isomer, unassigned) [Example 28-107, 1-{(1S,2S,4S or 1R,2R,4R)-2-cyano-4-[(2,2,2-trifluoroethyl)amino]cyclohexyl}-3-({4-[(trifluoro-methyl)sulfonyl]phenyl}amino)-1H-pyrazole-4-carboxamide], the IC50 stood at 31 nM.

Turning to `N#C[C@H]1C[C@@H](NCC(F)F)CC[C@@H]1n1cc(C(N)=O)c(Nc2ccnc(F)c2)n1` (single isomer, unassigned) [Example 28-115, 1-{(1S,2S,4S or 1R,2R,4R)-2-cyano-4-[(2,2-difluoroethyl)amino]cyclohexyl}-3-[(2-fluoropyridin-4-yl)amino]-1H-pyrazole-4-carboxamide], the IC50 was 33 nM. Then `CS(=O)(=O)c1ccc(Nc2nn([C@H]3CC[C@H](N4CC5(CCC5)C4)C[C@@H]3C#N)cc2C(N)=O)cc1` (single isomer, unassigned) [Example 28-130, 1-[(1S,2S,4S or 1R,2R,4R)-4-(2-azaspiro[3.3]hept-2-yl)-2-cyanocyclohexyl]-3-{[4-(methylsulfonyl)phenyl]amino}-1H-pyrazole-4-carboxamide], with 5 nM. Turning to `N#C[C@H]1C[C@@H](N2CC3(CCC3)C2)CC[C@@H]1n1cc(C(N)=O)c(Nc2ccccc2)n1` (single isomer, unassigned) [Example 28-136, 1-[(1S,2S,4S or 1R,2R,4R)-4-(2-azaspiro[3.3]hept-2-yl)-2-cyanocyclohexyl]-3-(phenylamino)-1H-pyrazole-4-carboxamide], the IC50 worked out at 61 nM. On to `N#C[C@H]1C[C@@H](NC2CC2)CC[C@@H]1n1cc(C(N)=O)c(Nc2ccc(C(F)(F)F)cc2)n1` (single isomer, unassigned) [Example 28-137, 1-[(1S,2S,4S or 1R,2R,4R)-2-cyano-4-(cyclopropylamino)cyclohexyl]-3-{[4-(trifluoromethyl)phenyl]amino}-1H-pyrazole-4-carboxamide], for which the IC50 turned out to be 22 nM. For `N#C[C@H]1C[C@H](NC2CC2)CC[C@@H]1n1cc(C(N)=O)c(Nc2ccc(C(F)(F)F)cc2)n1` (single isomer, unassigned) [Example 28-139, 1-[(1S,2S,4R or 1R,2R,4R)-2-cyano-4-(cyclopropylamino)cyclohexyl]-3-{[4-(trifluoromethyl)phenyl]amino}-1H-pyrazole-4-carboxamide], the IC50 stood at 113 nM. With `CC1(C)CN([C@H]2CC[C@H](n3cc(C(N)=O)c(Nc4ccc(Cl)cc4)n3)[C@@H](C#N)C2)C1` (single isomer, unassigned) [Example 28-144, 3-[(4-chlorophenyl)amino]-1-[(1S,2S,4S or 1R,2R,4R)-2-cyano-4-(3,3-dimethylazetidin-1-yl)cyclohexyl]-1H-pyrazole-4-carboxamide], the IC50 amounted to 21 nM. Then `CS(=O)(=O)c1ccc(Nc2nn([C@H]3CC[C@@H](N4CC5(CCC5)C4)C[C@@H]3C#N)cc2C(N)=O)cc1` (single isomer, unassigned) [Example 28-145, 1-[(1S,2S,4R or 1R,2R,4S)-4-(2-azaspiro[3.3]hept-2-yl)-2-cyanocyclohexyl]-3-{[4-(methylsulfonyl)phenyl]amino}-1H-pyrazole-4-carboxamide], with 15 nM.
